From patent US8080539B2, “Method of treating human preeclampsia employing resibufagenin” (Scott and White Healthcare, priority 2004, dated 2011)
Values joined by “and” are separate entries in the source; they are usually repeats but may differ in a detail not shown here. Equal entries are not always repeated.

Assays:
[1] = tested on: vessels from preeclamptic rats; test: Perfusion of dissected vessels from preeclamptic rats with marinobufagenin; set-up: species or system rat; conditions: vessels from preeclamptic rats perfused with marinobufagenin; average
Excerpt: (§1) It is elevated substantially more in preeclamptic rats.

[2] = tested on: vessels from normal pregnant animals or rats; test: Perfusion of dissected vessels from normal pregnant rats with marinobufagenin; set-up: species or system rat; conditions: vessels from normal pregnant rats perfused with marinobufagenin
Excerpt: as §1

pregnant rats = test: Blood pressure (tail cuff) in pregnant rats made hypertensive with MBG, then treated with RBG; type: in vivo, rat
Procedure: In order to confirm the effectiveness of RBG, experiments were performed. In the experiment, a group of four pregnant rats was provided with a blood pressure cuff on their tails in order to determine the base line blood pressure as shown in the table. In order to create hypertension, MBG was administered to the rats.
A dosage of approximately 7 mg per kg of rat weight with the rats weighing in the range of about 200-250 g was employed daily in order to determine the effectiveness of resibufagenin in the treatment of preeclampsia. The dosage was administered intraperitonially and the rats monitored after about three to four days of treatment. The MBG and RBG were administered in a suitable vehicle such as dimethylsulfoxide (DMSO).

cellular systems = conditions: cited from earlier work

C[C@]12CC[C@H](O)C[C@@]1(O)CC[C@@H]1[C@@H]2CC[C@]2(C)[C@@H](c3ccc(=O)oc3)C[C@H]3O[C@]132 [MBG, marinobufagenin]
constriction of vessels as compared with control [1]: about 36% | constriction of vessels [2]: do not constrict | BP after MBG (pregnant rats; individual pregnant rats, tail blood pressure cuff, MBG administered to create hypertension): 125 mmHg and 130 mmHg and 115 mmHg and 135 mmHg

C[C@]12CC[C@H](O)C[C@H]1CC[C@@H]1[C@@H]2CC[C@]2(C)[C@@H](c3ccc(=O)oc3)C[C@H]3O[C@]132 [RBG, Resibufagenin]
biological effect in cellular systems (cellular systems): no biological effect | change in blood pressure after treatment with RBG (pregnant rats; all four pregnant rats, approximately 7 mg per kg daily intraperitoneally, about three to four days): substantial reduction in blood pressure | BP after RBG (pregnant rats; individual pregnant rats made hypertensive with MBG, RBG approximately 7 mg per kg daily intraperitoneally in DMSO, after about three to four days of treatment): 95 mmHg and 120 mmHg and 110 mmHg and 105 mmHg
